“Also recorded” adds a separate entry of the source.
Experiments:
NPC1(−/−) mice = experiment: 27-HC treatment of NPC1(−/−) mice by intraperitoneal injection; assay type: in vivo; conditions: i.p.
Protocol: FIG. 7A-C. Behavioral Analysis of NPC1(−/−) Mice Treated with 27-HC. NPC1(−/−) treated with 0 mg/kg (●) or 10 mg/kg (▴) 27-HC once per week by intraperitoneal injection were tested using (A) Tremor Scores p=0.01), (B) Rotarod Analysis (p=0.0037) or (C) Coathanger Tests (p=0.0229).
FIG. 8. Impact of 27-HC Treatment on NPC1 (−/−) Mice. Immunohistochemical staining of cerebella stained for calbindin after treatment with either Omg/kg or 10 mg·kg 27-HC once per week by intraperitoneal injection. Brown staining indicates Purkinje cell survival in lobes of the cerebellum (I, V, X).
FIG. 9A-C. Impact of 27-HC Treatment on NPC1 (−/−) Mice. Quantification of Purkinje cells preservation at days (A) P42, (B) P63 or (C) P77. Lobes are binned as I-V, VI-VII, VIII, or IX-X. A Student's t-test was calculated on total Purkinje cell counts from each timepoint (p-values).
FIG. 10. Impact of 27-HC Treatment on NPC1 (−/−) Mice. Kaplan-Meier lifespan analysis of NPC1 (−/−) mice treated with either 0 mg/kg (dashed line) or 10 mg/kg (solid line) 27-HC.
(§1) To test this idea, we treated either NPC1 mutant (null or I1061T) or StARD9 mutant (null or truncation mutant) cells with 27-HC in a cocktail that delivers it into the cytoplasm independent of receptor-mediated endocytosis. […] Next, we treated NPC1(−/−) mice with 27-HC by i.p. delivery.

[1] = system: NPC1 (I1061T/I1061T) mice; experiment: 27-HC treatment of NPC1 (I1061T/I1061T) mice by oral gavage; assay type: in vivo
Protocol: FIG. 11. Impact of 27-HC Treatment on NPC1 (I1061T/I1061T) Mice. Kaplan-Meier lifespan analysis of NPC1 (I1061T/I1061T) mice treated with either 0 mg/kg (dashed line) or 5 mg/kg (solid line) 27-HC three times per week by oral gavage.
FIG. 13. Impact of 27-HC Treatment on Lipid Accumulation in Livers of Male and Female Mice. Comparing livers of wild-type vs. NPC1 (I1061T/I1061T) mice, lipid accumulations (black arrows) are apparent in NPC1 mutant mice but not wild-type mice. This is true and both males and females.
as §1

[2] = in vivo
Protocol: Studies have tested treatment 1× per week and 3× per week. However, from pharmacokinetic studies, it is known that 27-HC levels are only retained for 1-2 days. We will increase to daily treatment by oral gavage and measure serum levels of 27-HC to confirm maintenance of therapeutic levels. […] We will increase to higher doses by adding higher levels of DMSO to allow treatment with 20 mg/kg and 40 mg/kg.
We anticipate an increased benefit from treatment on a daily basis because the pharmacokinetics inform us about how long 27-HC remains in the blood (-100 ng/ml for 12 hours). For reference, children treated with Miglustat are dosed 3× per day. Higher doses of 27-HC and alternative cocktails are expected to reveal which parameters are more important for success. […] When crossed with NPC1(−/−) mice, they observe a significant decrease in NPC disease symptoms and an extension of lifespan (personal communication). This provides independent validation of the benefits associated with treatment with 27-HC. Finally, we expect improved outcomes for mice treated from conception over waiting until weaning (P21). This is because there is such a long window of brain development and maturation from conception to P21, that any developmental aspect of NPC disease would be well underway before we begin treatment at weaning.

NPC mutant mice = experiment: Therapeutic administration of 27-HC in two transgenic strains of mice with NPC1 mutations (summary); assay type: in vivo
Description: Mutations in the NPC1 gene affect two independent lysosomal functions. The first is the generation of lysosomal tubules as a mechanism to deliver intracellular cholesterol to other membrane-bound compartments. Because this function is impaired in NPC disease, we investigated the protein components necessary for tubule projection. We identified 27-HC as a signaling molecule that stimulates lysosomal tubulation and is not provided properly to lysosomal membrane to elicit tubulation in NPC disease. To correct this defect, we provide pure 27-HC in a cocktail that bypasses endocytosis. […] We have also tested this therapy in two different transgenic strains of mice with NPC1 mutations. […] Because we know the molecular target for 27-HC (StARD9), we tested 27-HC treatment in mice where we removed the StARD9 gene. […] This confirms the molecular target for 27-HC treatment and is consistent with our proposed model for the defects in NPC disease. Independent of the role for NPC1 in lysosomal tubulation, NPC1 is the “receptor” for the pro-apoptotic protein STING. STING is a signaling molecule that is activated by cell insults, including defective cholesterol transport. Once STING is activated, it triggers programmed cell death pathways. Counteracting STING activation, STING is silenced by binding to lysosomes, which leads to STING degradation and inactivation of this pathway. This silencing is required to prevent STING activation to proceed long-term. We recently discovered that the “receptor” on lysosomes that drives STING silencing is also NPC1. In cells mutant for NPC1, STING silencing is impaired, thereby leading to programmed cell death. As a result, NPC1 mutations cause cell death in two different ways. They cause loss of lysosomal tubulation, and they cause perpetual activation of STING.
We further propose that NPC1 is required for two functions in cells. The first is cholesterol transport from the lysosome to ER. If this activity is impaired, cells are “starved” of cholesterol in the ER. This has consequences for cholesterol metabolism and activates STING. Second, NPC1 in the lysosome is the receptor for STING that is required for STING silencing. In the absence of NPC1, STING remains active after initial activation (Priming) but also amplifies the responses including apoptosis. The dual roles of NPC1 are consistent with results across the NPC field. First, this explains why our StARD9 (−/−) mice are less severe than NPC1 (−/−) mice. NPC1(−/−) mice cause STING activation and impair STING silencing. […] Second, NPC1 (−/−) mice are more severe than NPC1 (I1061 T/I1061 T) mice because the NPC1 […] mice must reduce STING activation and retain some STING silencing compared to nulls.

[3] = NPC1 (I1061T/I1061T) mice, oral gavage, vs vehicle alone
[4] = two transgenic strains with NPC1 mutations

With `C[C@@H](CO)CCC[C@@H](C)[C@H]1CC[C@H]2[C@@H]3CC=C4C[C@@H](O)CC[C@]4(C)[C@H]3CC[C@]12C` [27-HC, 27-hydroxycholesterol] the “Lifespan (Kaplan-Meier)” value (NPC1(−/−) mice; 10 mg/kg vs 0 mg/kg, p=0.0214) was “extended the lifespan of the mice; also recorded: Extension of lifespan was significant”, the Onset of symptoms (NPC1(−/−) mice; vs vehicle alone) was “delayed the onset of symptoms” and the Purkinje cell preservation (NPC1(−/−) mice; vs vehicle alone) was “preserved Purkinje cells”. For the same compound, the Severity of symptoms (NPC1(−/−) mice; vs vehicle alone) was “reduced the severity of symptoms”, the “Lifespan (Kaplan-Meier)” value ([1]; NPC1 (I1061T/I1061T) mice, 5 mg/kg vs 0 mg/kg three times per week oral gavage, p=0.0108) was “extended the lifespan of the mice; also recorded: Extension of lifespan was significant” and the “Lipid accumulation in livers” value ([1]; NPC1 (I1061T/I1061T) mice, males and females) was “successful in reducing these lipid accumulations”. For the same compound, the “Sex difference of treatment benefit” value ([1]; NPC1 (I1061T/I1061T) mice, oral gavage) was “worked better in males than females”, the Onset of symptoms [1, 3] was “delayed the onset of symptoms” and the Severity of symptoms [1, 3] was “reduced the severity of symptoms”. For the same compound, the “Dosage needed for reduction of liver lipid accumulations, females” value ([1]; female NPC1 (I1061T/I1061T) mice) was 40 mg/kg, the “Sufficiency of the highest dose used, livers” value ([1]; females compared to males) was “not sufficient in females compared to males” and the “Dosage needed for reduction of liver lipid accumulations, males” value ([1]; male NPC1 (I1061T/I1061T) mice) was 10 mg/kg. The “How long 27-HC remains in the blood” value [2] was 12 h, the “Time 27-HC levels are retained” value [2] was 1 to 2 days and the “27-HC level in the blood” value ([2]; 12 hours) was -100 ng/mL. The “Overall improvement for NPC1 mutant mice” value (NPC mutant mice; mouse, in vivo) was “statistically-significant improvement”, the “Lifespan of mutant mice” value (NPC mutant mice; [4]) was “extends the lifespan of mutant mice significantly” and the “Lysosomal tubulation in NPC mutant mice” value (NPC mutant mice; [4]) was “rescues lysosomal tubulation”. The “Onset, severity and progression of NPC disease” value (NPC mutant mice; [4]) was “delays the onset, severity and progression of NPC disease”.
